# Measurements from PubChem BioAssay (NCI).
#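 48-hour exposure; five concentrations; linearly interpolated endpoints. GI50 is the concentration that inhibits growth by half. TGI marks complete inhibition of growth.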
# Tests used:
# Experiment in all cases: NCI-60 cell line screen, 48 h
# IGROV1 ovarian = test system: IGROV1 ovarian
# K-562 leukemia = test system: K-562 leukemia
# MALME-3M melanoma = test system: MALME-3M melanoma
# OVCAR-4 ovarian = test system: OVCAR-4 ovarian
# OVCAR-5 ovarian = test system: OVCAR-5 ovarian
# SK-OV-3 ovarian = test system: SK-OV-3 ovarian
# TK-10 renal = test system: TK-10 renal
# U251 CNS = test system: U251 CNS
# UO-31 renal = test system: UO-31 renal
# RPMI-8226 leukemia = test system: RPMI-8226 leukemia
SMILES,TGI (IGROV1 ovarian),TGI (K-562 leukemia),TGI (MALME-3M melanoma),TGI (OVCAR-4 ovarian),TGI (OVCAR-5 ovarian),TGI (SK-OV-3 ovarian),TGI (TK-10 renal),TGI (U251 CNS),TGI (UO-31 renal),TGI (RPMI-8226 leukemia),GI50 (IGROV1 ovarian),GI50 (K-562 leukemia),GI50 (OVCAR-4 ovarian),GI50 (OVCAR-5 ovarian),GI50 (RPMI-8226 leukemia),GI50 (SK-OV-3 ovarian),GI50 (TK-10 renal),GI50 (UO-31 renal)
O=c1[nH]cnc2c1cnn2Cc1cnnn1COCCO,> 100 µM,> 100 µM,> 100 µM,> 100 µM,> 100 µM,> 100 µM,> 100 µM,> 100 µM,> 100 µM,–,–,–,–,–,–,–,–,–
CNC(=O)CNC(=O)N(C[C@@H]1CCCN1C(=O)[C@H](CC(C)C)NC(=O)OC(C)(C)C)C(C)C,> 100 µM,> 100 µM,> 100 µM,> 100 µM,> 100 µM,> 100 µM,–,> 100 µM,> 100 µM,> 100 µM,–,–,–,–,–,–,–,–
COc1cc(S(=O)(=O)Nc2ccc(-c3csc(N4C(=O)CSC4c4ccccc4O)n3)cc2)ccc1Cl (stereo unspecified),> 100 µM,> 100 µM,> 100 µM,> 100 µM,> 100 µM,> 100 µM,–,–,> 100 µM,> 100 µM,–,–,–,–,–,–,–,–
Cc1nc2ccc(NC3OCC(O)C(O)C3O)cc2c(=O)n1-c1ccccc1 (stereo unspecified),> 100 µM,> 100 µM,> 100 µM,> 100 µM,> 100 µM,–,> 100 µM,> 100 µM,> 100 µM,> 100 µM,–,–,–,–,–,–,–,–
CN(C)CCCn1c(Cn2nc3ccccc3n2)nc2cc(C(F)(F)F)ccc21,> 100 µM,36.6 µM,24.4 µM,> 100 µM,> 100 µM,60.9 µM,80.6 µM,> 100 µM,73.2 µM,–,–,–,–,–,–,–,–,–
COC(=O)c1ccccc1C1CN=NC12Cc1ccc3c(c1C2=O)CCC3 (stereo unspecified),> 100 µM,> 100 µM,> 100 µM,> 100 µM,> 100 µM,> 100 µM,> 100 µM,> 100 µM,> 100 µM,–,–,–,–,–,–,–,–,–
CC[C@]12C=CCN3CC[C@@]4(c5cc(Br)c(OC)cc5N(C)[C@H]4[C@@](O)(C(=O)NC(Cc4c[nH]c5ccccc45)C(=O)OC)[C@@H]1O)[C@@H]32 (stereo partly specified),> 100 µM,> 100 µM,> 100 µM,> 100 µM,> 100 µM,> 100 µM,–,> 100 µM,> 100 µM,46.3 µM,–,–,–,–,–,–,–,–
COc1cccc(CCNc2c(C#N)c3n(c4ccccc4[n+]3C)c3ncccc23)c1,–,> 100 µM,32.6 µM,10.8 µM,34 µM,42.1 µM,50.1 µM,> 21.3 µM,12 µM,6.59 µM,–,–,–,–,–,–,–,–
COc1ccc([C@H]2CC3C(=O)N(c4ccc(OC)cc4)C(=O)C3c3[nH]c4ccccc4c32)cc1 (stereo partly specified),> 100 µM,> 100 µM,> 100 µM,> 100 µM,> 100 µM,> 100 µM,> 100 µM,> 100 µM,> 100 µM,–,–,–,–,–,–,–,–,–
COC(=O)C(CCC1(C)OCCO1)=[N+]=[N-],> 100 µM,> 100 µM,> 100 µM,> 100 µM,> 100 µM,> 100 µM,> 100 µM,> 100 µM,> 100 µM,–,–,–,–,–,–,–,–,–
O=S(=O)(c1ccccc1)c1ccc(-c2nc(-c3ccc4c(c3)Sc3ccccc3S4)cs2)cc1,–,> 100 µM,> 100 µM,> 100 µM,> 100 µM,41.9 µM,73.6 µM,> 100 µM,> 100 µM,> 100 µM,–,–,–,–,–,–,–,–
C=CCOC(=O)Cn1ccc(=O)[nH]c1=O,> 100 µM,> 100 µM,> 100 µM,–,> 100 µM,> 100 µM,> 100 µM,> 100 µM,> 100 µM,> 100 µM,–,–,–,–,–,–,–,–
Cn1cc2c3ccccc3nc-2c2ccccc21,–,9.65 µM,5.78 µM,5.25 µM,6.84 µM,9.3 µM,20.6 µM,6.51 µM,2.92 µM,3.94 µM,–,–,–,–,–,–,–,–
COc1ccc2c3/c(=C\c4ccc(N(C)C)cc4)c4ccccc4n3[n+](C)c2c1,> 100 µM,> 40 µM,–,6.46 µM,2.22 µM,2.57 µM,1.32 µM,> 100 µM,1.66 µM,0.136 µM,0.24 µM,0.0272 µM,0.987 µM,0.472 µM,< 0.0112 µM,1.04 µM,0.274 µM,0.484 µM
Cc1cc(C)c2c(n1)S(=O)(=O)N(CCCN1CCN(c3cccc(Cl)c3)CC1)/C(=C(\O)c1ccc(Br)cc1)C2=O,> 100 µM,> 100 µM,> 100 µM,55.8 µM,> 100 µM,> 100 µM,60.8 µM,> 100 µM,48.9 µM,–,–,–,–,–,–,–,–,–
C=C(C)CCC1C=[N+]([O-])OC(C)(C)C1(C)C (stereo unspecified),> 100 µM,> 100 µM,–,–,> 100 µM,> 100 µM,> 100 µM,> 100 µM,> 100 µM,> 100 µM,–,–,–,–,–,–,–,–
COc1ccc(-c2nnc3n(C)c4ccccc4n3c2=O)cc1,> 100 µM,–,> 100 µM,> 100 µM,> 100 µM,–,> 100 µM,84.9 µM,> 100 µM,–,–,–,–,–,–,–,–,–
CC(C)(C)OC(=O)N1N=CCC1c1ccccc1 (stereo unspecified),> 100 µM,> 100 µM,–,–,> 100 µM,> 100 µM,> 100 µM,–,> 100 µM,> 100 µM,–,–,–,–,–,–,–,–
COc1ccccc1C(=O)OCC1CCCN2CCCCC12 (stereo unspecified),–,> 100 µM,> 100 µM,> 100 µM,–,> 100 µM,> 100 µM,73.1 µM,> 100 µM,> 100 µM,–,–,–,–,–,–,–,–
O=c1[nH]c2ccc(CC(=S)N3CCOCC3)cc2o1,> 100 µM,–,> 100 µM,–,> 100 µM,> 100 µM,> 100 µM,> 100 µM,–,–,–,–,–,–,–,–,–,–
CCN(C(=O)N[C@H](C(=O)N[C@@H](CSC)C(=O)N[C@@H](C)C(=O)OC)C(C)C)c1ccccc1,23.9 µM,> 100 µM,26.6 µM,47.4 µM,29.5 µM,30.7 µM,26.4 µM,29.4 µM,31.3 µM,–,–,–,–,–,–,–,–,–
C(=C/c1nnnn1-c1ccccc1)/Nc1ccccc1,> 100 µM,> 100 µM,> 100 µM,–,> 100 µM,> 100 µM,77.5 µM,> 100 µM,65.9 µM,> 100 µM,–,–,–,–,–,–,–,–
